Measured values reported in patent US11459586B2, “Methods for increasing efficiency of nuclease-mediated gene editing in stem cells” (President and Fellows of Harvard College, priority 2016, dated 2022).

Tested on: human iPSC
Test: mThy1 gene targeting in hiPSC lentivirally overexpressing anti-apoptotic genes (EGFP+ vs EGFP- subsets)
Format: cell-based
Conditions: lentiviral overexpression
Text: FIGS. 3A-D. Overexpression of anti-apoptotic factors increases gene targeting rates in human iPSC, both for HR-mediated gene replacement and NHEJ-mediated gene excision. FIG. 3A. Mouse Thy1 gene targeting scheme. Two Crispr sgRNAs target human THY1 either within intron 1 (Left) or after the polyadenylation site (Right). The mouse Thy1 targeting vector plasmid contains mThy1 coding exons 2 and 3, flanked by hThy1 homology arms outside the sgRNA sites—coding exon 1 (which encodes the signal peptide) is retained but the sgRNA sites are disrupted. FIG. 3B. Plain human iPSC were infected with lentivirus that constitutively expresses EGFP together with an anti-apoptotic gene separated by an IRES. Three days after infection, each culture was nucleofected with plasmids encoding the mThy1 targeting vector, Cas9 nuclease, and Thy1 Left, Right, both, or no sgRNAs (pUC19). Five days later, cells were analyzed by flow cytometry. FIG. 3C. Representative FACS plots gated on live single cells: iPSC from each transfected culture were gated based on EGFP expression and the percentage of cells within those subsets that have gained mThy1 expression and/or lost hThy1 expression are indicated. […]
Subsequently, we determined whether rescue by these anti-apoptotic genes would result in higher gene editing frequencies in hiPSC. […]

Bcl-2: B cell lymphoma 2 protein, anti-apoptotic, overexpressed from lentivirus or Cas9 plasmid
frequency of NHEJ-mediated hThy1 homozygous gene deletions (both Thy1 sgRNAs): increased | frequency of HR-mediated mThy1 homozygous gene replacements (one sgRNA): dramatic increase
